Data set [1] in a line: Strain-modulated release of SN-38 from mechanoresponsive drug delivery device (fluorimetry). Format: physicochemical. The following applies: for release of SN-38 from device: PBS or RPMI with 10% v/v fetal bovine serum. The protocol: SN-38 from release media was quantified by mixing one (1) part release medium (containing drug) in three (3) parts 20 mM borate buffer (pH=9), which converts SN-38 to the carboxylate form. Fluorescence was detected by fluorimetry at an excitation of 380 nm and emission of 550 nm, as previously described (Yohe, J Controlled Release 2012, 162). (FIG. 42)
A drug delivery device with incorporated SN-38 was fabricated in accordance with Example 2, above. The ends of the material were placed between two pieces of foam tape and further secured by applying glue to the ends in contact with the foam tape. The ends were then placed between the grips of a tensile tester machine (Instron 5848 Microtester) and the sample length between the grips was recorded. A water bath was placed under the sample arms, and the drug delivery device was submerged beneath 300 mL of phosphate-buffered saline (PBS) or cell media, RPMI with 10% v/v fetal bovine serum. A magnetic stir bar was also added to the bath to ensure thorough mixing during the study. The Instron software was then programmed to extend the sample arms at a constant rate of 2 mm/s until a travel distance equivalent to thirty percent of the initial sample length was reached (corresponding to 30% strain), or equivalent to the entire initial sample length was reached (corresponding to 100% strain). Once the device was stretched, aliquots of release medium were sampled at predetermined time points. The percentage of SN-38 released into the surrounding aqueous environment was calculated using fluorimetry, as described in Example 31. Devices were also placed on the tensile tester, but in this instance they were not stretched (0% strain), to serve as control experiments. Release of the chemotherapy agent from devices subjected to 100% strain and more moderate from devices subjected to 30% strain. […] (FIG. 43)

Another data set deals with OE33, oesophageal cancer. As to the kind of experiment: OE33 cell viability with SN-38 release aliquots (MTS Assay). The following applies: release aliquots in RPMI with 10% fetal bovine serum incubated 96 hours. The class given is cell-based. The source says: By altering the amount of strain, the rate of SN-38 release can be controlled in order to provide a range of concentrations at fixed time points. […] The concentration of SN-38 can be either lower or higher than the IC50 value such that a similar curve can be created using force and/or strain, rather than, or in addition to, concentration. […] Because SN-38 is a toxic chemotherapeutic drug, the amount of SN-38 released correlates with cell viability. […] (FIG. 44)

A further data set deals with OE33. The following applies: 72 hours of incubation; read-out: IC50 of cisplatin with OE33; cited from earlier work.
Another data set relates to OE33 cells. The data set can be described thus: OE33 cell viability with cisplatin release aliquots (MTS Assay). The class given is cell-based. The following applies: release aliquots incubated 72 hours with OE33 cells. As for the experimental part:
Aliquots from release (FIG. 39) were incubated for 72 hours with OE33 cells, an oesophageal cell line. Cell viability from incubation of release aliquots over two hours were determined by MTS Assay, left. Cell viability at the 30-minute release at various strain magnitude are shown, right (p<0.05 for 30%, 100% when compared to 0%).
Cisplatin is used in the treatment of esophageal cancer. […] They used an esophageal cell line, OE33 (Sigma), to show the efficacy of cisplatin released from the tension-modulated drug delivery device, and that a dose-response curve can be generated using force and/or strain as the means to alter the dose. […] By altering the amount of force, the rate of cisplatin release can be controlled in order to provide a range of concentrations at fixed time points. The concentration of cisplatin can be either lower or higher than the IC50 value such that a similar curve may be created using force and/or strain on the x-axis, rather than, or in addition to, concentration.
Cisplatin can be loaded into these systems as described in Example 14. Cisplatin can be used to achieve dose-dependent tumor cell death, and also strain-dependent cell death. A strain-dependent release of cisplatin, a small hydrophilic drug molecule, can be seen in FIG. 39. Because cisplatin is a cytotoxic chemotherapeutic drug, the amount of cisplatin released correlates with cell viability (FIG. 40).

Data set [2] is described as follows: Tension-triggered release of cisplatin from mechanoresponsive drug delivery device (atomic absorption). Format: physicochemical. The following applies: for release of cisplatin from device: PBS. The source says: The amount of cisplatin released from the drug delivery system into the surrounding aqueous environment was quantified through flameless atomic absorption spectroscopy (also known as graphite furnace atomic absorption or electrothermal absorption (Varian AA240Z Atomic Absorption)). The platinum atom has a strong absorbance band at 265.9 nm, and was used for detecting the presence of platinum (the major component of the anticancer agent cisplatin) in the release medium. A standard curve was first created, and aliquots (sampled at different timepoints) from the release medium with unknown cisplatin concentrations were determined from this standard curve. The concentration values were then converted to amount (mass) of cisplatin released by multiplying the concentration by the total volume of solution into which the agent released. The amount of cisplatin actually released was then divided by the amount of cisplatin initially loaded into the device, to get a percentage of cisplatin released as a function of time.
A drug delivery device with incorporated cisplatin was fabricated in accordance with Example 1 above. The ends of the material were placed between two pieces of foam tape and further secured by applying glue to the ends in contact with the foam tape. The ends were then placed between the grips of a tensile tester machine (Instron 5848 Microtester) and the sample length between the grips was recorded. A water bath was placed under the sample arms, and the drug delivery device was submerged beneath 300 mL of phosphate-buffered saline (PBS). A magnetic stir bar was also added to the bath to ensure thorough mixing during the study. The Instron software was then programmed to extend the sample arms at a constant rate of 2 mm/s until a travel distance equivalent to the initial sample length was reached (corresponding to 100% strain). […] The percentage of cisplatin released into the surrounding aqueous environment was calculated using flameless atomic absorption spectroscopy, as described in Example 16. […]

A short description of data set [3]: Tension-triggered release of FITC-BSA from mechanoresponsive drug delivery device (fluorescence). Format: physicochemical. The following applies: PBS with 10% serum. The source says: The amount of fluorescein isothiocyanate-labeled bovine serum albumin (FITC-BSA) released from the drug delivery system into the surrounding aqueous environment was quantified through fluorescence spectrophotometry. The fluorescein isothiocyanate is a fluorophore that is maximally excited around 495 nm and maximally emits at around 520 nm. The fluorescence intensity emitted at 520 nm was used to construct a standard curve of fluorescence versus FITC-BSA concentration. Unknown FITC-BSA concentrations in the release medium were calculated from this standard curve. The concentration values were then converted to amount (mass) of FITC-BSA released by multiplying by the concentration values by the total volume of solution into which the protein released. The amount of FITC-BSA actually released was then divided by the amount of FITC-BSA initially loaded into the device, to get a percentage of protein released as a function of time. (FIGS. 19-21)
A drug delivery device with incorporated fluorescein isothiocyanate-labeled bovine serum albumin (FITC-BSA) was fabricated in accordance with Example 1 above. The ends of the material were placed between two pieces of foam tape and further secured by applying glue to the ends in contact with the foam tape. The ends were then placed between the grips of a tensile tester machine (Instron 5848 Microtester) and the sample length between the grips was recorded. A water bath was placed under the sample arms, and the drug delivery device was submerged beneath 300 mL of phosphate-buffered saline (PBS) with 10% serum (fetal bovine serum). A magnetic stir bar was also added to the bath to ensure thorough mixing during the study. The Instron software was then programmed to extend the sample arms at a constant rate of 2 mm/s until a travel distance equivalent to the initial sample length was reached (corresponding to 100% strain). Once the device was stretched, aliquots of release medium were sampled at predetermined time points. The percentage of protein released into the surrounding aqueous environment was calculated using fluorescence spectrophotometry, as described in Example 13 above. Devices were also placed on the tensile tester, but in this instance they were not stretched (0% strain), to serve as control experiments. Release of the fluorescent protein from devices subjected to strain was rapid, and was achieved only under the application of strain. […] (FIG. 24)
A drug delivery device with incorporated fluorescein isothiocyanate-labeled bovine serum albumin (FITC-BSA) was fabricated in accordance with Example 1 above. The coating was electrosprayed using a tip-to-collector distance of 15 cm. The ends of the material were placed between two pieces of foam tape and further secured by applying glue to the ends in contact with the foam tape. The ends were then placed between the grips of a tensile tester machine (Instron 5848 Microtester) and the sample length between the grips was recorded. A water bath was placed under the sample arms, and the drug delivery device was submerged beneath 300 mL of phosphate-buffered saline (PBS) with 10% serum (fetal bovine serum). A magnetic stir bar was also added to the bath to ensure thorough mixing during the study. The Instron software was then programmed to extend the sample arms at a constant rate of 2 mm/s until a travel distance equivalent to half of the initial sample length was reached (corresponding to 50% strain), or equivalent to the entire initial sample length was reached (corresponding to 100% strain). Once the device was stretched, aliquots of release medium were sampled at predetermined time points. The percentage of protein released into the surrounding aqueous environment was calculated using fluorescence spectrophotometry, as described in Example 13 above. Devices were also placed on the tensile tester, but in this instance they were not stretched (0% strain) to serve as a control experiment. […]

In data set [4] the test system is type I collagen in fibroblasts. The following applies: cited from earlier work.

Entries after “also recorded” stand apart in the source; their conditions may differ.

Consider `CCc1c2c(nc3ccc(O)cc13)-c1cc3c(c(=O)n1C2)COC(=O)[C@]3(O)CC` [SN-38, 7-ethyl-10-hydroxycamptothecin], for which, in data set [1], the “dependence of SN-38 release on strain” value is recorded as “strain-dependent”. In addition, the “release of SN-38 from device” value in data set [1] (0% strain) is “did not release appreciable amounts of drug”; in data set [1] (30% strain), “more moderate”. For the same compound, in the data set with OE33, oesophageal cancer, the “cell viability with released SN-38” value is reported as “deliver an efficacious amount of SN-38 to change the cell viability; also recorded: significant decreases in viability with increasing strain”.
With `N.N.[Cl][Pt][Cl]` [cisplatin, Cis-diamminedichloroplatinum(II)], the 50% inhibitory concentration (IC50) – broadly, the concentration that inhibits the measured activity by half – with OE33 was 2170 nM. Besides, the “cell viability with released cisplatin” value in the data set with OE33 cells is “deliver an efficacious amount of cisplatin to change the cell viability”. Further, the “release of cisplatin from device” value in data set [2] (100% strain) is on record as “rapid release”; in data set [2] (no applied tension (0% strain)) it was “did not release appreciable amounts of drug; also recorded: minimal release”. In addition, the “dependence of cisplatin release on strain” value in data set [2] (cell media solution (RPMI) with fetal bovine serum (10% v/v)) is “strain-dependent; also recorded: tension-dependent”.
For “FITC-BSA: Fluorescein isothiocyanate-labeled bovine serum albumin, model protein”, the “release of FITC-BSA from device” value is “did not release appreciable amounts of protein; also recorded: minimal release” in data set [3] (0% strain, dry coating, tip-to-collector distance 15 cm); “more moderate; also recorded: modest release profile” in data set [3] (50% strain, dry coating, tip-to-collector distance 15 cm); “rapid release” in data set [3] (100% strain); “rapid drug release” in data set [3] (100% strain, listed as protein); “most rapid; also recorded: rapid release” in data set [3] (100% strain, dry coating, tip-to-collector distance 15 cm); “did not release appreciable amounts of protein; also recorded: minimal release” in data set [3] (no applied tension (0% strain)). Moreover, the “release of FITC-BSA from device” value in data set [3] (no applied tension (0% strain), listed as protein) is reported as “did not release appreciable amounts of drug”.
Take TNF-α: in data set [4], the “effect on synthesis of type I collagen” value was “inhibit synthesis of type I collagen”.

Values taken from patent US11266768B2, “Stretch release drug delivery materials” (TRUSTEES OF BOSTON UNIVERSITY, priority 2013, dated 2022).
